Reference: ChEMBL document CHEMBL1201862, “PubChem BioAssay data set” (2004)
Activity calls are given as the source filed them.

Columns and labels:
[1] = Luminescence Cell-Based Dose Confirmation HTS to Identify Activators of 5'UTR Stem-Loop Driven Alpha-Synuclein mRNA Translation in H4 Neuroglioblastoma Cells. [Related pubchem assays: 1829 (Project Summary), 1814 (Primary HTS)]; type: functional
[2] = Luminescence Cell-Based Dose Response HTS to Identify Activators of Luciferase Translation or Activity in H4 […] Cells. [Related pubchem assays: 1829 (Project Summary), 1814 (Primary HTS)]; type: functional
[3] = test system: H4; test: Luminescence Cell-Based Dose Response HTS to Identify Activators of 5'UTR Stem-Loop Driven Prion Protein mRNA Translation in H4 Neuroglioblastoma Cells. [Related pubchem assays: 1829 (Project Summary), 1814 (Primary HTS)]; type: functional; settings: Homo sapiens
[4] = test system: Vero; test: cells; type: functional, Chlorocebus sabaeus; settings: Chlorocebus sabaeus, Vero
[5] = growth suppression of PTEN-null colon cells, dose response, cell-based, HCT116 PTEN knockout (AID 1047); type: functional;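 note: HCT116 colon tumor cells with PTEN knocked out; cells exposed to compound for 60 hours before readout; potency for loss of cell viability measured by luminescence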
[6] = growth suppression of beta-catenin-knockout colon cells, dose response, cell-based, HCT116, human colon tumor (AID 1045); type: functional;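 note: HCT116 colon tumor cells with beta catenin knocked out; cells exposed to compound for 60 hours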
[7] = target: Genome polyprotein (dengue virus type 2, UniProt P29990); test: Dengue-2 NS5 methyltransferase inhibitors, primary screen, biochemical, confirmation dose response (AID 588689); type: functional
[8] = inhibitors of clade B AD8 Env fusion, dose response, cell-based, cherry-pick (AID 652062); type: functional;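 note: luciferase signal from cell-cell fusion driven by HIV-1 clade B AD8 Env; potency is for inhibitors of fusion seen as a drop in luminescence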
[9] = inhibitors of intracellular T. cruzi replication, confirmation, NIH3T3 host cells, beta-gal luminescence (AID 2044); type: functional, cell-based;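 note: intracellular parasites grown in NIH/3T3 mouse fibroblasts as host cells; luminescent beta-galactosidase reporter signal from transgenic T. cruzi replicating inside host cells; inhibitors lower the luminescence signal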
[10] = cytotoxicity toward NIH3T3 fibroblasts, dose response, counter-screen, cell-based, ATP luminescence, mouse fibroblasts (AID 2010); type: functional;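 note: cells exposed to compound for about 90 hours before reading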
[11] = target: Cytochrome P450 2C19 (Homo sapiens, UniProt P33261); test: Cytochrome panel assay with activity outcomes. Panel member name: p450-cyp2c19 Compounds with AC50 equal or less than 10 uM are considered active; type: functional; settings: read-out: AC50
[12] = test system: INS1; test: beta cell apoptosis inhibitors, cytokine rescue, dose response, luminescence, retest (AID 449756); type: functional, cell-based; settings: Rattus norvegicus;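 note: cell death triggered by IL-1 beta plus TNF-alpha plus IFN-gamma mixture; protective hits raise ATP signal compared with cytokine alone wells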
[13] = target: T1, RNA-binding protein pos-1 (Caenorhabditis elegans, UniProt G5EF15); test: inhibitors of POS-1/mex-3 RNA binding, dose response, biochemical, fluorescence polarization (AID 1964);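 note: purified POS-1 fused to maltose binding protein made in E. coli; potency of compounds blocking POS-1 binding to fluorescent RNA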
T1 sequence (G5EF15 whole entry): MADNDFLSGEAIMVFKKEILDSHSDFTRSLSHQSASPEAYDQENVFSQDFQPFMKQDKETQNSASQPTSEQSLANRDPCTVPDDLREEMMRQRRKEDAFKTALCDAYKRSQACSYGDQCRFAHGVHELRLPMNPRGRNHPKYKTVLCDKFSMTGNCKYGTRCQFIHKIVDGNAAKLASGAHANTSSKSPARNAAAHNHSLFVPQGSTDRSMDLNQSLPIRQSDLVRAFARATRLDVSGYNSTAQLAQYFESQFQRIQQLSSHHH

[14] = target: T2, Zinc finger protein mex-5 (Caenorhabditis elegans, UniProt Q9XUB2); test: MEX-5/TCR-2 RNA interaction inhibitors, dose response, biochemical, C. elegans, fluorescence polarization (AID 1960)
T2 sequence (Q9XUB2 whole entry): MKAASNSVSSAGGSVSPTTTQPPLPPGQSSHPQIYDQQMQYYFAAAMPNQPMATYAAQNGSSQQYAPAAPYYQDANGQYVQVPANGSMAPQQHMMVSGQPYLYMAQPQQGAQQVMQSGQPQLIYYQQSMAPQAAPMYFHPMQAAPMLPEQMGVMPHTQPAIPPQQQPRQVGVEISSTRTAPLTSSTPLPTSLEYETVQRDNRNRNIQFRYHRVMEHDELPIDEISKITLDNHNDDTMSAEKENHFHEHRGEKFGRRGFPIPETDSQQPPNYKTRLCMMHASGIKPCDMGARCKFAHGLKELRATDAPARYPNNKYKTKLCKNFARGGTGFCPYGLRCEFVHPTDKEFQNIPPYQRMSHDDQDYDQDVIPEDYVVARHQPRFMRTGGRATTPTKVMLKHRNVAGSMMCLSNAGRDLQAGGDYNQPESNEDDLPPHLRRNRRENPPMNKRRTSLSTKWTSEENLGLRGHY

[15] = target: T3, Replicative DNA helicase DnaB (Mycobacterium tuberculosis, UniProt P9WMR3); test: DnaB intein splicing inhibitors, dose response, biochemical, cell-free fluorescence (AID 449749); type: functional
T3 sequence (P9WMR3 whole entry): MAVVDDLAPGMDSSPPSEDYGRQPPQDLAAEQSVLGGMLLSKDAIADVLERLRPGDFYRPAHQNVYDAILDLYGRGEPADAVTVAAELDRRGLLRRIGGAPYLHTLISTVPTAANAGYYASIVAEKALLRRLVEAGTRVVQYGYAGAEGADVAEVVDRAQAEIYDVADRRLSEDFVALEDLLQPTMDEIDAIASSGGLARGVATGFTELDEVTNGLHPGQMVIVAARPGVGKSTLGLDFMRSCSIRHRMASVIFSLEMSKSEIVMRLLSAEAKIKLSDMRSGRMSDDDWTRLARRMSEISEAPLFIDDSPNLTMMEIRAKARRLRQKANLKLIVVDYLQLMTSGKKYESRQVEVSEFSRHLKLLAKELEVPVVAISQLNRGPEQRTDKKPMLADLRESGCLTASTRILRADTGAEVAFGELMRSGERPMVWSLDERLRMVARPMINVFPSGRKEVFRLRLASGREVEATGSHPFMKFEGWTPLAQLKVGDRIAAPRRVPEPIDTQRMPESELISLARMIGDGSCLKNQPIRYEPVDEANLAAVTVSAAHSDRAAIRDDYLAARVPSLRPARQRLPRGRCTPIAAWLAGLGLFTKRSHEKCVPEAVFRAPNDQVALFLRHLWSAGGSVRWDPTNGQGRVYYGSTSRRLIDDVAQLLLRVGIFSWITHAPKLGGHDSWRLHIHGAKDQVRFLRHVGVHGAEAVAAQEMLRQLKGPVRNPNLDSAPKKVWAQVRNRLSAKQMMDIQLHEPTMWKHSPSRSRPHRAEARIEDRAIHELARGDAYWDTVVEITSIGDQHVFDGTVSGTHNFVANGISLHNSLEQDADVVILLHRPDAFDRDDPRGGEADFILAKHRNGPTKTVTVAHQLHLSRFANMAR

[16] = target: T4, Protein RecA (Mycobacterium tuberculosis, UniProt P9WHJ3); test: Fluorescence Cell-Free Homogeneous Dose Retest to Identify Inhibitors of RecA-Intein Splicing Activity. [Related pubchem assays (depositor defined):AID2097, AID2223, AID489010, AID492950]; type: functional
T4 sequence (P9WHJ3 whole entry): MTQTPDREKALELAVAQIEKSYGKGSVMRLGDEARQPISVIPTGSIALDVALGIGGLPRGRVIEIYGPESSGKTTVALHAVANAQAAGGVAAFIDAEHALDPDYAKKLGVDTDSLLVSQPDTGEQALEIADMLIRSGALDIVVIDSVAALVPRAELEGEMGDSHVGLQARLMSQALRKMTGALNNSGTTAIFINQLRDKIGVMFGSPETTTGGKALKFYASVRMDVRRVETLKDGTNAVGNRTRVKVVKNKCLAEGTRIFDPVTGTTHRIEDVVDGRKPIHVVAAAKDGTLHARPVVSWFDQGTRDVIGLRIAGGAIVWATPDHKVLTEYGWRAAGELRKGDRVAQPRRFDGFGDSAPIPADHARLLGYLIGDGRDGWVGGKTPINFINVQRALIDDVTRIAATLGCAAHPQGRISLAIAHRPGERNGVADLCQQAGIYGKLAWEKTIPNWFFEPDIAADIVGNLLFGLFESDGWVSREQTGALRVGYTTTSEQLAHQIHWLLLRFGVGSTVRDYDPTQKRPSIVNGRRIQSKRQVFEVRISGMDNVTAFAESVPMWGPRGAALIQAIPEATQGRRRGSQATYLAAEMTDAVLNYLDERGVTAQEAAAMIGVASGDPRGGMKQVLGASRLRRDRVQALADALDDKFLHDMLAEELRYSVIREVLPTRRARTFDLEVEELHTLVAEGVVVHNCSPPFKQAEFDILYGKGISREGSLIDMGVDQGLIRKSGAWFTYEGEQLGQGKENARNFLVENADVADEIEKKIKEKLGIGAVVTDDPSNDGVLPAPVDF

[17] = target: T5, Heat shock factor protein 1 (Mus musculus, UniProt P38532); test: inhibition of MG132-induced HSE-luciferase signal, confirmation, cell-based, NIH3T3, luminescence, dose retest (AID 2382); type: functional;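 note: NIH3T3 fibroblasts with HSF1-driven luciferase reporter stressed by proteasome inhibitor MG132; luminescence from HSF1-driven luciferase expression after 8 hours of MG132 stress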
T5 sequence (P38532 whole entry): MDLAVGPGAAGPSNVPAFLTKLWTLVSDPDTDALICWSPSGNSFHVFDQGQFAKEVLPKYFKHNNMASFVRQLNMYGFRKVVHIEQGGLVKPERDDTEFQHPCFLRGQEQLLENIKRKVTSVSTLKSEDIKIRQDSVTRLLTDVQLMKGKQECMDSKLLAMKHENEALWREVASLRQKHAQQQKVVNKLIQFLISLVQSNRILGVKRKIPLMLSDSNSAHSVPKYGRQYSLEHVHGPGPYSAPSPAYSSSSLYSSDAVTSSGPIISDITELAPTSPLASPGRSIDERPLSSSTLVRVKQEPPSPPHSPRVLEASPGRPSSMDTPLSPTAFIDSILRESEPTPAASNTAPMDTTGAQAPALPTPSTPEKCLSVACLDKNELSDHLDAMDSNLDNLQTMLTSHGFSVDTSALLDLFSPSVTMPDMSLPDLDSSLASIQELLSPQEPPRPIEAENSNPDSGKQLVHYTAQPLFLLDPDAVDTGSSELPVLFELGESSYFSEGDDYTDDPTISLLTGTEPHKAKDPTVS

Sequence of Genome polyprotein (P29990 2492-3391 limits assumed): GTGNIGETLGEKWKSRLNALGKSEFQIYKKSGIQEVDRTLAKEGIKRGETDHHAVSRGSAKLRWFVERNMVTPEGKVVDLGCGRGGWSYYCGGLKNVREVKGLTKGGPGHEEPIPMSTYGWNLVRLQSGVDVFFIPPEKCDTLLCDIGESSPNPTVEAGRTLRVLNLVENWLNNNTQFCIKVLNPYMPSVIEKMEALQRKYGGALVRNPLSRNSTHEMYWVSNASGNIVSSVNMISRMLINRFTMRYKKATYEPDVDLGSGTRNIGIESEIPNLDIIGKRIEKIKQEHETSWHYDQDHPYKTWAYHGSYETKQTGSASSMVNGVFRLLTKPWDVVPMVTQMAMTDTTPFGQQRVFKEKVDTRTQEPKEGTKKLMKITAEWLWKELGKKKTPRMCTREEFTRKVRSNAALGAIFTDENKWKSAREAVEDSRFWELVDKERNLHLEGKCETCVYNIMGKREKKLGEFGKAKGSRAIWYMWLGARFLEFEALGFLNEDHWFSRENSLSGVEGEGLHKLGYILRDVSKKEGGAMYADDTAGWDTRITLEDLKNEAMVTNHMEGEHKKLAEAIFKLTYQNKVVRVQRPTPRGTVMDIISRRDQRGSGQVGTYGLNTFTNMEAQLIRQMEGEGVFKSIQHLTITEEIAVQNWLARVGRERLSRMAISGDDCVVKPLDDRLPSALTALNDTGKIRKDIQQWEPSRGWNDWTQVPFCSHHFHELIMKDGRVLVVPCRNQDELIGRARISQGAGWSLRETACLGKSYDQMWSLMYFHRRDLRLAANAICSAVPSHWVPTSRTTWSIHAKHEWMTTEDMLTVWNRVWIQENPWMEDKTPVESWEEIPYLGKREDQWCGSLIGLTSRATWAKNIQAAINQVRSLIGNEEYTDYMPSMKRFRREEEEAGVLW
Sequence of Cytochrome P450 2C19 (P33261 whole entry): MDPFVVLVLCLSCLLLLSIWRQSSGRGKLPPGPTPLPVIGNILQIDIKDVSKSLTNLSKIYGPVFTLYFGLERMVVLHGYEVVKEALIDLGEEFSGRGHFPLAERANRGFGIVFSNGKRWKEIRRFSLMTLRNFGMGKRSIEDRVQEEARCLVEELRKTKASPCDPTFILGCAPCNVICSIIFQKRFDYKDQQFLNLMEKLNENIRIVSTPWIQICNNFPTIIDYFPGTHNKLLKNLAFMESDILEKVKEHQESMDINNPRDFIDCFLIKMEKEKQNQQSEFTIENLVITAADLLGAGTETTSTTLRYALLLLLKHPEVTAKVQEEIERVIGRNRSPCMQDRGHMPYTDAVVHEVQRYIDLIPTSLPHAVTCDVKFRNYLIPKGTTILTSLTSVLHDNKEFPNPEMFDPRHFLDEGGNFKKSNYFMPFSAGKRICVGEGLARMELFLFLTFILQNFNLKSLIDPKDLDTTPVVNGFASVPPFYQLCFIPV

CCN1CCN(c2cc(C)c3cc(NC(=O)c4cccc(OC)c4)ccc3n2)CC1
EC50 [1]: 13.5 µM (active) | EC50 [2]: 16 µM (active) | EC50 [3]: 17.9 µM (active) | CC50 [4]: > 25 µM (active)

O=c1c2ccccc2nc(CSc2[nH]cnc3ncnc2-3)n1-c1ccccc1
EC50 [5]: 14.9 µM (active) | EC50 [6]: 28.9 µM (active)

COC1C=COC2(C)Oc3c(C)c(O)c4c(O)c(c(CN5CCN(C)CC5)c(O)c4c3C2=O)NC(=O)C(C)=CC=CC(C)C(O)C(C)C(O)C(C)C(OC(C)=O)C1C (centres undefined)
IC50 [7]: 96.6 µM (active)

Cc1ccc(NCc2nnc(SCC(=O)Nc3ncc(C)s3)n2Cc2ccco2)c(C)c1
EC50 [5]: 23.3 µM (active) | EC50 [6]: 23.8 µM (active)

O=C1CNC(=O)/C1=C/c1ccc(Br)cc1
IC50 [7]: > 100 µM (active)

O=C(Nc1ccc(F)cc1)c1nc[nH]c1C(=O)Nc1ccccc1[N+](=O)[O-]
EC50 [5]: 3.08 µM (active) | EC50 [6]: 4.18 µM (active)

O=C(C[C@H]1C[C@H]2c3cc(NC(=O)C4CCC4)ccc3O[C@H]2[C@H](CO)O1)NCc1ccc2c(c1)OCO2
AC50 [8]: 4.08 µM (active)

CN1CCN(C(=O)CCN2C(=O)/C(=C\c3ccc(Cl)cc3)SC2=S)CC1
CC50 [4]: 15.8 µM (active)

COc1ccc(CNCCC(c2ccc(OC(C)C)cc2)C(C)C)cc1OC (centres undefined)
EC50 [9]: 0.416 µM (active) | EC50 [5]: 13 µM (active) | EC50 [10]: 9.8 µM (active) | EC50 [6]: 10.7 µM (active) | AC50 [11]: 10 µM (inconclusive) | AC50 [12]: 12.7 µM (active)

Cc1n[nH]c(C)c1S(=O)(=O)N1CCCC(C(=O)Nc2ccc(Br)cc2)C1 (centres undefined)
EC50 [13]: > 300 µM (not active) | EC50 [1]: > 120 µM (not active) | EC50 [2]: > 120 µM (not active) | EC50 [3]: > 120 µM (not active) | EC50 [14]: > 300 µM (not active)

Cc1cc([N+](=O)[O-])cc2c1NCC1CC=CC21 (centres undefined)
EC50 [13]: > 300 µM (not active) | EC50 [14]: > 300 µM (not active)

O=C1c2cccc3c([N+](=O)[O-])ccc(c23)C(=O)N1c1nccs1
EC50 [5]: 21.6 µM (active) | EC50 [6]: 11.9 µM (active)

CCn1nccc1C(=O)Nc1ccc(S(=O)(=O)NC23CC4CC(CC(C4)C2)C3)cc1
EC50 [5]: 24.3 µM (active) | EC50 [6]: 27.9 µM (active)

COC(=O)CCC(=O)OC1(C)C(=O)C=C2C=C(C3CC3)N(c3ccc(CO)cc3)C=C2C1=O (centres undefined)
EC50 [13]: 25.5 µM (active) | EC50 [14]: 23.5 µM (active)

O=C(Nc1cccn(Cc2c(Cl)cccc2Cl)c1=O)c1ccc(Cl)cc1
AC50 [8]: 8.74 µM (active)

O=C(O)c1ccccc1-n1cccc1C(=O)O
EC50 [13]: > 300 µM (not active) | EC50 [14]: > 300 µM (not active)

O=C(CCN1C(=O)C2C3C=CC(C4CC34)C2C1=O)Oc1cccc2cccnc12 (centres undefined)
EC50 [5]: 18.8 µM (active) | EC50 [6]: 16.7 µM (active)

Cc1noc(/C=C/c2cccnc2)c1[N+](=O)[O-]
EC50 [9]: 2.34 µM (active) | EC50 [10]: 18.4 µM (active) | CC50 [4]: 17.3 µM (active)

Cc1ccc(N2C(=O)C(Cl)=C(N3CCOCC3)C2=O)cc1Cl
AC50 [15]: 6.76 µM (active) | EC50 [16]: 2.61 µM (active) | IC50 [7]: 34.7 µM (active)

O=C1NC(=O)C(=Cc2c(Cl)cccc2Cl)C(=O)N1
IC50 [7]: 43.4 µM (active)

Cc1ccc(N2C(=O)NC(=O)/C(=C/c3cnn(-c4ccc(C)cc4)c3)C2=O)cc1
EC50 [13]: > 300 µM (not active) | EC50 [14]: 67.5 µM (active) | EC50 [17]: > 195 µM (not active)

Nc1c(C(=O)NCc2ccc(F)cc2)c2nc3ccccc3nc2n1CCCN1CCOCC1
EC50 [5]: 21.5 µM (active) | EC50 [6]: 18.9 µM (active)

CCc1ccc(Nc2ccc(C(=O)O)cc2[N+](=O)[O-])cc1
IC50 [7]: > 100 µM (active)

COCCn1c(N)c(NCc2ccccc2)c(=O)[nH]c1=O
EC50 [13]: 5.47 µM (inconclusive) | EC50 [14]: 3.03 µM (active)

COc1cccc(/C=C2\SC(=S)N(C(C(=O)O)c3ccccc3)C2=O)c1OC (centres undefined)
IC50 [7]: 49.7 µM (active)
